Experimental data as given in ChEMBL document CHEMBL1921734 (Bioorg Med Chem, 2011).
pIC50: −log10 of the molar value.

How the values were obtained:
Cytochrome P450 3A4 [1] = target: T1, Cytochrome P450 3A4 (Homo sapiens, UniProt P08684); test: Inhibition of CYP3A4; assay type: ADME
[2] = target: T2, Steroid 17-alpha-hydroxylase/17,20 lyase (Homo sapiens, UniProt P05093); test: Inhibition of 17,20-lyase activity of human CYP17A1
T2 sequence (P05093 whole entry): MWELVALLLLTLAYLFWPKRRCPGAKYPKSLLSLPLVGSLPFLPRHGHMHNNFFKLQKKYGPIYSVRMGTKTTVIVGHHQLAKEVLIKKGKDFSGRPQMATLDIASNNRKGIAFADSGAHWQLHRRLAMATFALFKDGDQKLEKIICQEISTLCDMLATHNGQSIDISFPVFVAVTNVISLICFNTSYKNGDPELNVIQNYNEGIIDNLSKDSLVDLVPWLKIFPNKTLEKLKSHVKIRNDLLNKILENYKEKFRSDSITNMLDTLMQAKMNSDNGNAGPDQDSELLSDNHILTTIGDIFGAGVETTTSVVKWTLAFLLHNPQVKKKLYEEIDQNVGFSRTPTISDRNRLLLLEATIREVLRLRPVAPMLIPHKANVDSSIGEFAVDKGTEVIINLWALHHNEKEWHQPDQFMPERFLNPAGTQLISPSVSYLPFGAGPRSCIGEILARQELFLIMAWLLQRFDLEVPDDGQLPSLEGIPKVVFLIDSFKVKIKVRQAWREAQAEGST

[3] = target: T3, Steroid 17-alpha-hydroxylase/17,20 lyase (Rattus norvegicus, UniProt P11715); test: Inhibition of 17,20-lyase activity of Sprague-Dawley rat testicular microsomal CYP17A1 using [1,2-3H]-17a-hydroxyprogesterone as substrate after 15 mins by TLC analysis; set-up: species or system Testis
T3 sequence (P11715 whole entry): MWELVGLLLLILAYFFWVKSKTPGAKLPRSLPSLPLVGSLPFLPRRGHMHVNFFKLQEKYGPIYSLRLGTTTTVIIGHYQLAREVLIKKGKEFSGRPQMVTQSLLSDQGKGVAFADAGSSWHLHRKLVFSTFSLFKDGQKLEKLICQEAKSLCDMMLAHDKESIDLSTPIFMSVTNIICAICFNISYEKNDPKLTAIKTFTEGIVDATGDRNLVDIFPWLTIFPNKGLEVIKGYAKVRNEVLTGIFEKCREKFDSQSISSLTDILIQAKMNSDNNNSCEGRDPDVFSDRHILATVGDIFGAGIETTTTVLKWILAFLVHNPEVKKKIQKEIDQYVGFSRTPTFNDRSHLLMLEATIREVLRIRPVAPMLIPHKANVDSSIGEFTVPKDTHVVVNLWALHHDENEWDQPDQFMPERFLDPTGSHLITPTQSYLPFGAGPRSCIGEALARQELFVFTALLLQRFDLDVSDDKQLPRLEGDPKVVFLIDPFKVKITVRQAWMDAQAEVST

Cynomolgus monkey [4] = test: Reduction of serum testosterone level in cynomolgus monkey at 1 mg/kg, po after 8 hrs by radioimmunoassay (reference value: 296 +/- 277%); assay type: functional, Macaca fascicularis; set-up: scale not given: the % may be the effect or the level left
[5] = Inhibition of Sprague-Dawley rat adrenal gland 11-hydroxylase using [1,2-3H]-hydroxy-11-deoxycorticosterone as substrate after 30 mins by TLC analysis; assay type: tissue-based
Cynomolgus monkey [6] = test: Reduction of serum DHEA level in cynomolgus monkey at 1 mg/kg, po after 8 hrs by radioimmunoassay (reference value: 25 +/- 6.2%); assay type: functional, Macaca fascicularis; set-up: scale not given: the % may be the effect or the level left
Cytochrome P450 3A4 [7] = target: T1, Cytochrome P450 3A4; test: Inhibition of recombinant human CYP3A4 assessed as conversion of testosterone into 6-hydroxytestosterone after 30 mins by HPLC analysis; assay type: ADME
[8] = target: T2, Steroid 17-alpha-hydroxylase/17,20 lyase; test: Inhibition of 17,20-lyase of recombinant human CYP17A1 using [1,2-3H]-17a-hydroxypregnenolone as substrate after 15 mins by TLC analysis
Cynomolgus monkey [9] = test: Reduction of serum DHEA level in cynomolgus monkey at 1 mg/kg, po after 10 hrs by radioimmunoassay (reference value: 7.2 +/- 0.99%); assay type: functional, Macaca fascicularis; set-up: scale not given: the % may be the effect or the level left
Cynomolgus monkey [10] = test: Reduction of serum testosterone level in cynomolgus monkey at 1 mg/kg, po after 10 hrs by radioimmunoassay (reference value: 269.8 +/- 94.5%); assay type: functional, Macaca fascicularis; set-up: scale not given: the % may be the effect or the level left
Cytochrome P450 2C8 = target: T4, Cytochrome P450 2C8 (Homo sapiens, UniProt P10632); test: Inhibition of human B-lymphoblastoid cell microsomal CYP2C8 assessed as Tolbutamide hydroxylation preincubated for 5 mins with substrate; assay type: ADME
T4 sequence (P10632 whole entry): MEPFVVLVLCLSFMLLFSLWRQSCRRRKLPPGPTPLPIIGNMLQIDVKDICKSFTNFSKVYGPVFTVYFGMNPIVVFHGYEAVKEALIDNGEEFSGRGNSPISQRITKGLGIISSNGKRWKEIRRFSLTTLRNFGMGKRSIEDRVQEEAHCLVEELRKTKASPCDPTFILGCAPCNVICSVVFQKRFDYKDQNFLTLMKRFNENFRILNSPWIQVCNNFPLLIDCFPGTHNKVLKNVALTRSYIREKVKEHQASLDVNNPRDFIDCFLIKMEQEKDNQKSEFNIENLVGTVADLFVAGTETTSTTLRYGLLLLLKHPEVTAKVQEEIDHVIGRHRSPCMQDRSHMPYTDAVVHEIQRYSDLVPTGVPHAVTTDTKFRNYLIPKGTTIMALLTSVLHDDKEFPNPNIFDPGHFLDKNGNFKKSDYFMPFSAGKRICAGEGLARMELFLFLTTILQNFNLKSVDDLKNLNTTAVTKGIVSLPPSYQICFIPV

Cytochrome P450 2D6 = Cytochrome P450 2D6 (Homo sapiens, UniProt P10635); test: Inhibition of human B-lymphoblastoid cell microsomal CYP2D6 assessed as (+)-bufuralol 1'-hydroxylation preincubated for 5 mins with substrate; assay type: ADME
Sequence of Cytochrome P450 2D6 (P10635 whole entry): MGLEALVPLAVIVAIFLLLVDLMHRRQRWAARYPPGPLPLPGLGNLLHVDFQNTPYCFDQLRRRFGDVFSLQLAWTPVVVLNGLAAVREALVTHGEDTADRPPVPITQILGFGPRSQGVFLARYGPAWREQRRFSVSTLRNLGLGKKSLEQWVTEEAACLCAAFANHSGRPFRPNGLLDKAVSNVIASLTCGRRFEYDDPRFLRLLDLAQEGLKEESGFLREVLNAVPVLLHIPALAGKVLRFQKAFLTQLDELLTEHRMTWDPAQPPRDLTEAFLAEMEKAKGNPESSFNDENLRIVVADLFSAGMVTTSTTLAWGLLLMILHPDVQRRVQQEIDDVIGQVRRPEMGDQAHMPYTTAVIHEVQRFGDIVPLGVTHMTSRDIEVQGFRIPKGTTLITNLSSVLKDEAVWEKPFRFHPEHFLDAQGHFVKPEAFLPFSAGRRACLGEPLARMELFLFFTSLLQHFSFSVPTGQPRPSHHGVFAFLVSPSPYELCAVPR

Cynomolgus monkey [11] = test: Reduction of serum testosterone level in cynomolgus monkey at 1 mg/kg, po after 2 hrs by radioimmunoassay (reference value: 90 +/- 16.6%); assay type: functional, Macaca fascicularis; set-up: scale not given: the % may be the effect or the level left
Cytochrome P450 1A2 = target: T5, Cytochrome P450 1A2 (Homo sapiens, UniProt P05177); test: Inhibition of human B-lymphoblastoid cell microsomal CYP1A2 assessed as 7-ethoxyresorufin O-deethylation preincubated for 5 mins with substrate; assay type: ADME
T5 sequence (P05177 whole entry): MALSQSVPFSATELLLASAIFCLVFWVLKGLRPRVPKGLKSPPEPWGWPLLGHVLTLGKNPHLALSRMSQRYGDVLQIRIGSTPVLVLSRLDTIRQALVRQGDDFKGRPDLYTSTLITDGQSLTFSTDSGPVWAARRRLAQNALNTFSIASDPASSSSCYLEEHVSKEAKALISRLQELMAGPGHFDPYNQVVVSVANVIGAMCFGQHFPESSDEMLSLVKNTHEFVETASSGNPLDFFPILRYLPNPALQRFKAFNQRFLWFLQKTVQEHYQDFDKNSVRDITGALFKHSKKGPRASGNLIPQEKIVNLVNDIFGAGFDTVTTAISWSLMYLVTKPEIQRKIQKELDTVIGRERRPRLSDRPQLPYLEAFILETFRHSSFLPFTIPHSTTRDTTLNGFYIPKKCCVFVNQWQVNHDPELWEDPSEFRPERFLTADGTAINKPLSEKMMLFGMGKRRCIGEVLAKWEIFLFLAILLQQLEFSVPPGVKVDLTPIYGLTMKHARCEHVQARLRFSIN

Cynomolgus monkey [12] = test: Reduction of serum DHEA level in cynomolgus monkey at 1 mg/kg, po after 2 hrs by radioimmunoassay (reference value: 97.9 +/- 22.3%); assay type: functional, Macaca fascicularis; set-up: scale not given: the % may be the effect or the level left
Cynomolgus monkey [13] = test: Reduction of serum testosterone level in cynomolgus monkey at 1 mg/kg, po after 8 hrs by radioimmunoassay (reference value: 101 +/- 54%); assay type: functional, Macaca fascicularis; set-up: scale not given: the % may be the effect or the level left
Cynomolgus monkey [14] = test: Reduction of serum DHEA level in cynomolgus monkey at 1 mg/kg, po after 8 hrs by radioimmunoassay (reference value: 54 +/- 25%); assay type: functional, Macaca fascicularis; set-up: scale not given: the % may be the effect or the level left
Cynomolgus monkey [15] = test: Reduction of serum testosterone level in cynomolgus monkey at 1 mg/kg, po after 5 hrs by radioimmunoassay (reference value: 63 +/- 19.2%); assay type: functional, Macaca fascicularis; set-up: scale not given: the % may be the effect or the level left
Cynomolgus monkey [16] = test: Reduction of serum DHEA level in cynomolgus monkey at 1 mg/kg, po after 5 hrs by radioimmunoassay (reference value: 88.6 +/- 4.4%); assay type: functional, Macaca fascicularis; set-up: scale not given: the % may be the effect or the level left

T1 sequence (P08684 whole entry): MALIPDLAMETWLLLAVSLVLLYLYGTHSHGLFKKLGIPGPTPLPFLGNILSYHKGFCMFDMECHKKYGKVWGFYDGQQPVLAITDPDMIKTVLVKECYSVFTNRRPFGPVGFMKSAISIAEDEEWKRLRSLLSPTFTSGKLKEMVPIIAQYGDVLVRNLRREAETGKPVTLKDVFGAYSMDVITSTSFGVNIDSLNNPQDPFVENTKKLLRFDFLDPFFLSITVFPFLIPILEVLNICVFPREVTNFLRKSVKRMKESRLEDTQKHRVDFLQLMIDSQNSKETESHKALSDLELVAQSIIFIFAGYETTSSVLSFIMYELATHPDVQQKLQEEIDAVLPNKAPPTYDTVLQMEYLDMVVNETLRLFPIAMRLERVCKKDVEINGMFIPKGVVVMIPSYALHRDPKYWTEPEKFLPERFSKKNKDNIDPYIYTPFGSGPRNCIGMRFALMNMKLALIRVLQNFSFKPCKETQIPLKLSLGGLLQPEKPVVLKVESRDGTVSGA

Row | Compound | pIC50 [3] | pIC50 [5] | pIC50 (Cytochrome P450 3A4 [7]) | pIC50 [8] | other results
1 | CNC(=O)c1ccc2cc([C@](O)(c3c[nH]cn3)C(C)C)ccc2c1 | – | – | – | – | pIC50 (Cytochrome P450 3A4 [1]): 5.11; pIC50 [2]: 8.26
2 | CNC(=O)c1ccc2cc(C3CCn4cncc43)ccc2c1 (racemic) | 7.82 | 6.54 | > 6.00 | 7.89 | –
3 | NC(=O)c1ccc2cc(C3(O)CCn4cncc43)ccc2c1 (racemic) | 7.62 | 7.00 | < 5.00 | 7.54 | –
4 | CCNC(=O)c1ccc2cc(C3(O)CCn4cncc43)ccc2c1 (racemic) | 6.96 | < 6.00 | < 5.00 | 6.72 | –
5 | O=C(NC1CC1)c1ccc2cc(C3(O)CCn4cncc43)ccc2c1 (racemic) | 7.00 | < 6.00 | < 5.00 | 6.54 | –
6 | CC(C)NC(=O)c1ccc2cc(C3(O)CCn4cncc43)ccc2c1 (racemic) | 6.80 | < 6.00 | < 5.00 | 6.40 | –
7 | CNC(=O)c1ccc2cc([C@@]3(O)CCn4cncc43)ccc2c1 [ORTERONEL] | 7.32 | < 6.00 | – | – | Activity (Cynomolgus monkey [9]): 7.6%; Activity (Cynomolgus monkey [10]): 55.6%; pIC50 (Cytochrome P450 2C8): < 4.52; pIC50 (Cytochrome P450 2D6): < 4.52; Activity (Cynomolgus monkey [11]): 75.9%; pIC50 (Cytochrome P450 1A2): 4.55; Activity (Cynomolgus monkey [12]): 61.1%; Activity (Cynomolgus monkey [13]): 30%; Activity (Cynomolgus monkey [14]): 12%; Activity (Cynomolgus monkey [15]): 14.2%; Activity (Cynomolgus monkey [16]): 32.8%

Continued, in another order:

Row | pIC50 [3] | pIC50 [5] | pIC50 (Cytochrome P450 3A4 [7]) | pIC50 [8] | Compound | other results
8 | 6.74 | < 6.00 | – | – | CNC(=O)c1ccc2cc([C@]3(O)CCn4cncc43)ccc2c1 | Activity (Cynomolgus monkey [4]): 258%; Activity (Cynomolgus monkey [6]): 91%
9 | – | < 6.00 | – | – | CNC(=O)c1ccc2cc(C(O)(c3c[nH]cn3)C(C)C)ccc2c1 (racemic) | –
10 | – | < 6.00 | – | – | CNC(=O)c1ccc2cc(C3(O)CCn4cncc43)ccc2c1 (racemic) | –
11 | 6.96 | 6.28 | 5.49 | 7.06 | CNC(=O)c1ccc2cc(C3(O)c4cncn4CC3(C)C)ccc2c1 (racemic) | –
12 | < 6.00 | < 6.00 | 5.16 | 6.39 | CNC(=O)c1ccc2cc(C(C)(O)c3cncn3C)ccc2c1 (racemic) | –
